Measured values taken from patent US20230278972A1, “SUBSTITUTED HALOALKYL SULFONANILIDE HERBICIDES” (FMC Corporation, priority 2020, published 2023).

Experiments:
Assay type in all cases: in vivo
[1] = system: barnyardgrass (Echinochloa crus-galli); assay: Test A preemergence, barnyardgrass; settings: Preemergence; for Plant response rating, Barnyardgrass: 0 to 100 scale (0 no effect, 100 complete control)
How it was run: (§1)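 Greenhouse pot test in a loam–sand blend; compounds delivered in a non-phytotoxic solvent carrying a surfactant, applied either as a directed spray to soil at seeding or over seedlings 2 to 10 cm high with one to two leaves.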

kochia (Bassia scoparia) [2] = assay: Test A preemergence, kochia; settings: Preemergence; for Plant response rating, Kochia: 0 to 100 scale (0 no effect, 100 complete control); for Kochia plant response rating: visual injury on 0 to 100 scale (0 no effect, 100 complete control), approximately 10 days
How it was run: as §1

[3] = system: ragweed (common ragweed, Ambrosia artemisiifolia); assay: Test A preemergence, ragweed; settings: Preemergence; for Plant response rating, Ragweed: 0 to 100 scale (0 no effect, 100 complete control); for Ragweed plant response rating: visual injury on 0 to 100 scale (0 no effect, 100 complete control), approximately 10 days
How it was run: as §1

[4] = system: Ryegrass, Italian (Italian ryegrass, Lolium multiflorum); assay: Test A preemergence, Ryegrass, Italian; settings: Preemergence; for Plant response rating, Ryegrass, Italian: 0 to 100 scale (0 no effect, 100 complete control); for Ryegrass, Italian plant response rating: visual injury on 0 to 100 scale (0 no effect, 100 complete control), approximately 10 days
How it was run: as §1

[5] = system: Foxtail, Giant (giant foxtail, Setaria faberi); assay: Test A preemergence, Foxtail, Giant; settings: Preemergence; for Plant response rating, Foxtail, Giant: 0 to 100 scale (0 no effect, 100 complete control); for Foxtail, Giant plant response rating: visual injury on 0 to 100 scale (0 no effect, 100 complete control), approximately 10 days
How it was run: as §1

[6] = system: pigweed (Amaranthus retroflexus); assay: Test A preemergence, pigweed; settings: for Plant response rating, Pigweed: 0 to 100 scale (0 no effect, 100 complete control); for Pigweed plant response rating: visual injury on 0 to 100 scale (0 no effect, 100 complete control), approximately 10 days
How it was run: (§2)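 Formulated with a surfactant in a non-phytotoxic solvent, compounds are applied to loam–sand pots, either to bare soil immediately after seeding (preemergence) or to seedlings of 2 to 10 cm bearing one to two leaves (postemergence).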

[7] = system: barnyardgrass (Echinochloa crus-galli); assay: Test A postemergence, barnyardgrass; settings: Postemergence, 0 to 100 scale (0 no effect, 100 complete control); for Plant response rating, Barnyardgrass: 125 g ai/ha; for Barnyardgrass plant response rating: 500 g ai/ha, visual injury vs untreated controls after approx. 10 days
How it was run: as §2

kochia (Bassia scoparia) [8] = assay: Test A postemergence, kochia; settings: Postemergence, 0 to 100 scale (0 no effect, 100 complete control); for Plant response rating, Kochia: 125 g ai/ha; for Kochia plant response rating: 500 g ai/ha, visual injury vs untreated controls after approx. 10 days
How it was run: as §1

[9] = system: ragweed (common ragweed, Ambrosia artemisiifolia); assay: Test A postemergence, ragweed; settings: Postemergence, 0 to 100 scale (0 no effect, 100 complete control); for Plant response rating, Ragweed: 125 g ai/ha; for Ragweed plant response rating: 500 g ai/ha, visual injury vs untreated controls after approx. 10 days
How it was run: as §1

[10] = system: Ryegrass, Italian (Italian ryegrass, Lolium multiflorum); assay: Test A postemergence, Ryegrass, Italian; settings: Postemergence, 0 to 100 scale (0 no effect, 100 complete control); for Plant response rating, Ryegrass, Italian: 125 g ai/ha; for Ryegrass, Italian plant response rating: 500 g ai/ha, visual injury vs untreated controls after approx. 10 days
How it was run: as §1

[11] = system: Foxtail, Giant (giant foxtail, Setaria faberi); assay: Test A postemergence, Foxtail, Giant; settings: Postemergence, 0 to 100 scale (0 no effect, 100 complete control); for Plant response rating, Foxtail, Giant: 125 g ai/ha; for Foxtail, Giant plant response rating: 500 g ai/ha, visual injury vs untreated controls after approx. 10 days
How it was run: as §1

[12] = system: pigweed (Amaranthus retroflexus); assay: Test A postemergence, pigweed; settings: Postemergence, 0 to 100 scale (0 no effect, 100 complete control); for Plant response rating, Pigweed: 125 g ai/ha; for Pigweed plant response rating: 500 g ai/ha, visual injury vs untreated controls after approx. 10 days
How it was run: as §1

[13] = system: wheat (Triticum aestivum); assay: Test A postemergence, wheat; settings: Postemergence, 0 to 100 scale (0 no effect, 100 complete control); for Plant response rating, Wheat: 125 g ai/ha; for Wheat plant response rating: 500 g ai/ha, visual injury vs untreated controls after approx. 10 days
How it was run: as §2

corn (Zea mays) = assay: Test A postemergence, corn; settings: Postemergence, 0 to 100 scale (0 no effect, 100 complete control); for Plant response rating, Corn: 125 g ai/ha; for Corn plant response rating: 500 g ai/ha, visual injury vs untreated controls after approx. 10 days
How it was run: as §1

[14] = system: blackgrass (Alopecurus myosuroides); assay: Test A postemergence, blackgrass; settings: Postemergence, 0 to 100 scale (0 no effect, 100 complete control); for Plant response rating, Blackgrass: 125 g ai/ha; for Blackgrass plant response rating: 500 g ai/ha, visual injury vs untreated controls after approx. 10 days
How it was run: as §1

[15] = system: galium (catchweed bedstraw, Galium aparine); assay: Test A postemergence, galium; settings: Postemergence, 0 to 100 scale (0 no effect, 100 complete control); for Plant response rating, Galium: 125 g ai/ha; for Galium plant response rating: 500 g ai/ha, visual injury vs untreated controls after approx. 10 days
How it was run: as §2

[16] = 125 g ai/ha, visual injury, approx. 10 days

In the case of Cc1cc(C)c(N(S(=O)(=O)C(F)(F)F)S(=O)(=O)C(F)(F)F)cc1C1=NOC2(CCCC2)C1 [Compound 208], the “Plant response rating, Barnyardgrass” value [1, 16] is reported as 90, the “Plant response rating, Barnyardgrass” value ([1]; 500 g ai/ha) is reported as 90 and the “Plant response rating, Kochia” value (kochia (Bassia scoparia) [2]; [16]) is reported as 90. The “Plant response rating, Kochia” value (kochia (Bassia scoparia) [2]; 500 g ai/ha) was 90, the “Plant response rating, Ragweed” value [3, 16] was 0 and the “Plant response rating, Ragweed” value ([3]; 500 g ai/ha) was 0. For the same compound, the “Plant response rating, Ryegrass, Italian” value [4, 16] was 70, the “Plant response rating, Ryegrass, Italian” value ([4]; 500 g ai/ha) was 80 and the “Plant response rating, Foxtail, Giant” value [5, 16] was 90. The “Plant response rating, Foxtail, Giant” value ([5]; 500 g ai/ha) was 100, the “Plant response rating, Pigweed” value [6, 16] was 60 and the “Plant response rating, Pigweed” value ([6]; 500 g ai/ha) was 70. The “Plant response rating, Barnyardgrass” value [7] was 0, the “Barnyardgrass plant response rating” value [7] was 30 and the “Plant response rating, Kochia” value (kochia (Bassia scoparia) [8]) was 10. The “Kochia plant response rating” value (kochia (Bassia scoparia) [8]) was 30, the “Plant response rating, Ragweed” value [9] was 20 and the “Ragweed plant response rating” value [9] was 20. For the same compound, the “Plant response rating, Ryegrass, Italian” value [10] was 0, the “Ryegrass, Italian plant response rating” value [10] was 40 and the “Plant response rating, Foxtail, Giant” value [11] was 0. The “Foxtail, Giant plant response rating” value [11] was 40, the “Plant response rating, Pigweed” value [12] was 20 and the “Pigweed plant response rating” value [12] was 50. For the same compound, the “Plant response rating, Wheat” value [13] was 0, the “Wheat plant response rating” value [13] was 50 and the “Plant response rating, Corn” value (corn (Zea mays)) was 0. For the same compound, the “Corn plant response rating” value (corn (Zea mays)) was 20, the “Plant response rating, Blackgrass” value [14] was 0 and the “Blackgrass plant response rating” value [14] was 20. The “Plant response rating, Galium” value [15] was 30 and the “Galium plant response rating” value [15] was 70.
With Cc1cc(C)c(C(=O)N2CCCOCC2)cc1NS(=O)(=O)C(F)(F)F [Compound 160] the “Barnyardgrass plant response rating” value ([1]; 125 g ai/ha, visual injury on 0 to 100 scale (0 no effect, 100 complete control), approximately 10 days) was 80, the “Plant response rating, Barnyardgrass” value ([1]; 500 g ai/ha) was 100 and the “Kochia plant response rating” value (kochia (Bassia scoparia) [2]; 125 g ai/ha) was 20. The “Plant response rating, Kochia” value (kochia (Bassia scoparia) [2]; 500 g ai/ha) was 90, the “Ragweed plant response rating” value ([3]; 125 g ai/ha) was 10 and the “Plant response rating, Ragweed” value ([3]; 500 g ai/ha) was 90. The “Ryegrass, Italian plant response rating” value ([4]; 125 g ai/ha) was 50, the “Plant response rating, Ryegrass, Italian” value ([4]; 500 g ai/ha) was 60 and the “Foxtail, Giant plant response rating” value ([5]; 125 g ai/ha) was 90. For the same compound, the “Plant response rating, Foxtail, Giant” value ([5]; 500 g ai/ha) was 100, the “Pigweed plant response rating” value ([6]; 125 g ai/ha) was 90 and the “Plant response rating, Pigweed” value ([6]; 500 g ai/ha) was 100. The “Plant response rating, Barnyardgrass” value [7] was 30, the “Barnyardgrass plant response rating” value [7] was 80 and the “Plant response rating, Kochia” value (kochia (Bassia scoparia) [8]) was 10. For the same compound, the “Kochia plant response rating” value (kochia (Bassia scoparia) [8]) was 30, the “Plant response rating, Ragweed” value [9] was 70 and the “Ragweed plant response rating” value [9] was 80. The “Plant response rating, Ryegrass, Italian” value [10] was 0, the “Ryegrass, Italian plant response rating” value [10] was 0 and the “Plant response rating, Foxtail, Giant” value [11] was 0. For the same compound, the “Foxtail, Giant plant response rating” value [11] was 60, the “Plant response rating, Pigweed” value [12] was 70 and the “Pigweed plant response rating” value [12] was 90. For the same compound, the “Plant response rating, Wheat” value [13] was 0, the “Wheat plant response rating” value [13] was 20 and the “Plant response rating, Corn” value (corn (Zea mays)) was 0. For the same compound, the “Corn plant response rating” value (corn (Zea mays)) was 10, the “Plant response rating, Blackgrass” value [14] was 0 and the “Blackgrass plant response rating” value [14] was 10. The “Plant response rating, Galium” value [15] was 80 and the “Galium plant response rating” value [15] was 90.
Cc1cc(F)c(C(=O)N2CC(C)OC(C)C2)cc1NS(=O)(=O)C(F)(F)F (stereo not drawn) [Compound 238] was tested, and the “Plant response rating, Barnyardgrass” value [1, 16] was 0, the “Plant response rating, Barnyardgrass” value ([1]; 500 g ai/ha) was 0 and the “Plant response rating, Kochia” value (kochia (Bassia scoparia) [2]; [16]) was 80. For the same compound, the “Kochia plant response rating” value (kochia (Bassia scoparia) [2]; 500 g ai/ha) was 60, the “Plant response rating, Ragweed” value [3, 16] was 20 and the “Ragweed plant response rating” value ([3]; 500 g ai/ha) was 90. The “Plant response rating, Ryegrass, Italian” value [4, 16] was 60, the “Ryegrass, Italian plant response rating” value ([4]; 500 g ai/ha) was 90 and the “Plant response rating, Foxtail, Giant” value [5, 16] was 30. For the same compound, the “Foxtail, Giant plant response rating” value ([5]; 500 g ai/ha) was 60, the “Plant response rating, Pigweed” value [6, 16] was 20 and the “Pigweed plant response rating” value ([6]; 500 g ai/ha) was 80. The “Plant response rating, Barnyardgrass” value [7] was 0, the “Barnyardgrass plant response rating” value [7] was 60 and the “Plant response rating, Kochia” value (kochia (Bassia scoparia) [8]) was 20. The “Kochia plant response rating” value (kochia (Bassia scoparia) [8]) was 30, the “Plant response rating, Ragweed” value [9] was 60 and the “Ragweed plant response rating” value [9] was 80. For the same compound, the “Plant response rating, Ryegrass, Italian” value [10] was 30, the “Ryegrass, Italian plant response rating” value [10] was 70 and the “Plant response rating, Foxtail, Giant” value [11] was 30. The “Foxtail, Giant plant response rating” value [11] was 70, the “Plant response rating, Pigweed” value [12] was 30 and the “Pigweed plant response rating” value [12] was 80. For the same compound, the “Plant response rating, Wheat” value [13] was 60, the “Wheat plant response rating” value [13] was 70 and the “Plant response rating, Corn” value (corn (Zea mays)) was 0. The “Corn plant response rating” value (corn (Zea mays)) was 0, the “Plant response rating, Blackgrass” value [14] was 0 and the “Blackgrass plant response rating” value [14] was 30. The “Plant response rating, Galium” value [15] was 80 and the “Galium plant response rating” value [15] was 80.
